# In patent US5304474A, “Hydrophobic peptide esters and amides” (Board of Regents, The University of Texas System, priority 1991, dated 1994):
# Entries after “also recorded” stand apart in the source; their conditions may differ. Peptide text beside a SMILES is read from it. * marks the point of attachment. βNA = c1ccc2cc(N*)ccc2c1
# How the values were obtained:
# [1] = test system: natural killer cells (NK); assay: NK function: lysis of K562 target cells (51Cr release) after preincubation of lymphocytes with compound; conditions: for NK toxicity / effect on NK function, in words: lymphocytes exposed 15 minutes at room temperature (FIG. 4, FIG. 5); for NK Toxicity (LD50): concentration which results in 50% loss of human NK function, PBL 15 minutes at 22° C.; for effect of unesterified dipeptides on NK cell survival or lytic activity: up to 5×10^-3 M; for NK Function % Specific Cytotoxicity: Nil 50.8 (Table 2); for prevention of Leu-OMe ablation of NK activity / permanent effect on NK function: PBM; for prevention of Leu-OMe ablation of NK activity: 5 mM Leu-OMe with lysosomal inhibitor (FIG. 1); for permanent effect on NK function: agent alone, washed, 18 hours culture, E:T 40:1 (FIG. 1)
# Description: PBM were separated from heparinized venous blood of healthy donors by centrifugation over sodium diatrizoate-Ficoll gradients (Isolymph, Gallard-Schlesinger Chemical Mfg. Corp., Carle Place, N.Y.).
# All cell exposures to the amino acids, dipeptides or their methyl esters were carried out by suspending cells in Dulbecco's phosphate buffered saline (PBS) and incubating them at room temperature with the reagent at the indicated concentration and time interval.
# Percent of control cytotoxicity was calculated using the formula: [formula]
# [2] = test system: [^3 H]Leu-Leu-OMe uptake by PBL (facilitated transport); assay: Competitive inhibition of [3H]Leu-Leu-OMe uptake; type: cell-based, human; conditions: for inhibition at 250 µM: Homo sapiens, unlabeled compound 250 microM
# Description: Human peripheral blood lymphocytes (PBL) were incubated in the presence of [^3 H]labeled Leu-Leu-OMe at 22° C. for varying lengths of time. The incubation mixture was then centrifuged through silicone oil to separate the cells from any unbound or non-internalized [^3 HLeu-Leu-OMe. […] At 37° C., levels of [^3 H]Leu-Leu-OMe accumulation by PBL were increased above those seen at 22° C. (see Table 4).
# human erythrocytes (RBC) = assay: 51Cr release from RBC incubated with peptide ester alone; type: cell-based; conditions: for ^51 Cr Release from RBC: Nil 410 + 12
# Description: The following experiments were carried out to determine whether DPPI could generate a lytic product from Leu-Leu-OMe. In the experiment detailed in FIG. 12, ^51 Cr-labeled human erythrocytes (RBC) were incubated with varying concentrations of Leu-Leu-OMe alone or in the presence of purified bovine DPPI.
# [3] = [3H]Leu-Leu-OMe 10 microM (Table 5)
# [4] = [3H]Leu-Leu-OMe 10 microM (Table 6)
# [5] = 250 micro-M, Nil 40.8 (Table 16)
molecule,measurement,setting,value
COC(=O)[C@@H](NC(=O)[C@@H](N)Cc1ccccc1)C(C)C [Phe-Val-OMe] (H-Phe-Val-OMe),"NK toxicity / effect on NK function, in words",[1],markedly less active than Val-Phe-OMe
"CC(C)C[C@H](NC(=O)[C@@H](N)CC(C)C)C(=O)OCc1ccccc1 [Leu-Leu-OBenzyl, L-leucyl-L-leucyl benzyl ester]","competitive inhibition of [3H]Leu-Leu-OMe uptake, in words",[2],competitively inhibited
same,inhibition at 250 µM,[2]; [3],87%
same,potency relative to Leu-Leu-OMe in depleting human PBL of cytotoxic lymphocytes,[1],greater than twofold more potent than Leu-Leu-OMe
same,NK Function % Specific Lysis K562,"[1]; 6.25 micro-M during preincubation, Nil 66 (Table 14)",62%
same,NK Function % Specific Lysis K562,"[1]; 12.50 micro-M, Nil 66 (Table 14)",< 1%
same,NK Function % Specific Lysis K562,"[1]; 25.00 micro-M, Nil 66 (Table 14)",1%
same,"NK toxicity / effect on NK function, in words",[1],ablates human NK activity
COC(=O)[C@H](CC(C)C)NC(=O)[C@@H](N)CO [Ser-Leu-OMe] (H-Ser-Leu-OMe),"competitive inhibition of [3H]Leu-Leu-OMe uptake, in words",[2],excellent competitive inhibitors of [^3 H]Leu-Leu-OMe uptake
same,inhibition at 250 µM,[2]; [4],94%
same,NK Toxicity (LD50),[1],> 250 micro-M
same,"NK toxicity / effect on NK function, in words",[1],no observed NK inhibitory effects; also recorded: little or no toxicity for NK cells
zinc [reference compound],effect on Leu-Leu-OMe mediated NK toxicity,[1]; added with Leu-Leu-OMe,appeared to inhibit this Leu-Leu-OMe toxicity
COC(=O)[C@@H](NC(=O)[C@@H](N)C(C)C)C(C)C [Val-Val-OMe] (H-Val-Val-OMe),"NK toxicity / effect on NK function, in words",[1],less active than either Leu-Val-OMe or Val-Leu-OMe
COC(=O)[C@H](CC(C)C)NC(=O)CN [Gly-Leu-OMe],"NK toxicity / effect on NK function, in words",[1],greatly reduced NK toxicity
COC(=O)[C@H](CC(C)C)NC(=O)[C@H](CC(C)C)NC(=O)[C@@H](N)CC(C)C [Leu-Leu-Leu-OMe] (H-Leu-Leu-Leu-OMe),"competitive inhibition of [3H]Leu-Leu-OMe uptake, in words",[2],do not competitively inhibit PBL uptake of L-Leu-L-Leu-OMe
same,inhibition at 250 µM,[2]; [3],6%
same,concentration required for effect equivalent to Leu-Leu-OMe,[1]; MP-depleted lymphocytes (FIG. 4),5 fold
same,"NK toxicity / effect on NK function, in words",[1],caused dose-dependent loss of NK function
"CC(C)[C@H](N)C(=O)N[C@@H](Cc1ccccc1)C(=O)O [Val-Phe, L-valyl L-phenylalanine, reference compound] (H-Val-Phe-OH)",effect of unesterified dipeptides on NK cell survival or lytic activity,[1],had no effect on NK cell survival or lytic activity
COC(=O)[C@H](CC(C)C)NC(=O)[C@H](CC(C)C)NC(=O)[C@H](CC(C)C)NC(=O)[C@@H](N)CC(C)C [LLLLOMe] (H-LLLL-OMe),^51 Cr Release from RBC,human erythrocytes (RBC); 100 micro-M,425 + 24
same,^51 Cr Release from RBC,human erythrocytes (RBC); 500 micro-M,457 + 41
"CC(C)C[C@H](NC(=O)[C@@H](N)C(C)C)C(=O)O [Val-Leu, L-valyl L-leucine, reference compound] (H-Val-Leu-OH)",effect of unesterified dipeptides on NK cell survival or lytic activity,[1],had no effect on NK cell survival or lytic activity
"NCC(=O)N[C@@H](Cc1ccccc1)C(=O)Nc1ccc2ccccc2c1 [Gly-Phe-beta-naphthylamide, glycyl L-phenylalanyl beta napthylamide] (H-Gly-Phe-βNA)","competitive inhibition of [3H]Leu-Leu-OMe uptake, in words",[2],competitively inhibits [^3 H]Leu-Leu-OMe uptake by lymphocytes
same,NK Function % Specific Lysis K562,"[1]; 1 micro-M, Nil 40.8 (Table 16)",52.5%
same,NK Function % Specific Lysis K562,"[1]; 5 micro-M, Nil 40.8 (Table 16)",1.2%
same,NK Function % Specific Lysis K562,"[1]; 20 micro-M, Nil 40.8 (Table 16)",0.6%
same,"NK toxicity / effect on NK function, in words",[1],a very potent NK toxin
COC(=O)[C@H](Cc1ccccc1)NC(=O)[C@@H](N)C(C)C [Val-Phe-OMe] (H-Val-Phe-OMe),inhibition at 250 µM,[2]; [4],75%
same,NK Toxicity (LD50),[1],24 micro-M
same,"NK toxicity / effect on NK function, in words",[1],produced concentration-dependent ablation of NK function at concentrations comparable to those at which Leu-Leu-OMe was active; also recorded: among the most potent of the NK toxic dipeptide methyl esters
COC(=O)[C@H](CC(C)C)NC(=O)[C@@H](N)CC(=O)O [Asp-Leu-OMe] (H-Asp-Leu-OMe),"competitive inhibition of [3H]Leu-Leu-OMe uptake, in words",[2],not competitively inhibited
same,"NK toxicity / effect on NK function, in words",[1],exhibit no NK toxicity
COC(=O)[C@H](CC(C)C)NC(=O)[C@@H](N)C(C)C [Val-Leu-OMe] (H-Val-Leu-OMe),"NK toxicity / effect on NK function, in words",[1],produced concentration-dependent ablation of NK function at concentrations comparable to those at which Leu-Leu-OMe was active
COC(=O)[C@H](CC(C)C)NC(=O)[C@H](C)N [Ala-Leu-OMe] (H-Ala-Leu-OMe),"NK toxicity / effect on NK function, in words",[1],had no NK inhibitory effects
COC(=O)[C@H](CC(C)C)NC(=O)[C@@H]1CCCN1 [Pro-Leu-OMe] (H-Pro-Leu-OMe),"competitive inhibition of [3H]Leu-Leu-OMe uptake, in words",[2],not competitively inhibited
same,inhibition at 250 µM,[2]; [4],-18%
same,NK Toxicity (LD50),[1],> 250 micro-M
same,"NK toxicity / effect on NK function, in words",[1],exhibit no NK toxicity
COC(=O)[C@H](Cc1ccccc1)NC(=O)CN [Gly-Phe-OMe] (H-Gly-Phe-OMe),NK Function % Specific Lysis K562,[1]; [5],34.5%
same,NK Function % Specific Lysis K562,"[1]; 500 micro-M, Nil 40.8 (Table 16)",10.1%
same,"NK toxicity / effect on NK function, in words",[1],a much less potent NK toxin than is Leu-Leu-OMe
COC(=O)[C@H](CCCNC(=N)N)NC(=O)[C@@H](N)CC(C)C [Leu-Arg-OMe],"NK toxicity / effect on NK function, in words",[1],no observed NK inhibitory effects
COC(=O)[C@H](CC(C)C)NC(=O)[C@@H](N)CCCCN [Lys-Leu-OMe] (H-Lys-Leu-OMe),"NK toxicity / effect on NK function, in words",[1],no observed NK inhibitory effects
"COC(=O)[C@H](Cc1ccccc1)NC(=O)[C@@H](N)CC(=O)O [Asp-Phe-OMe, aspartyl phenylalanine methyl ester] (H-Asp-Phe-OMe)",inhibition at 250 µM,[2]; [4],8%
same,NK Toxicity (LD50),[1],> 250 micro-M
same,"NK toxicity / effect on NK function, in words",[1],no observed NK inhibitory effects
same,NK Function % Specific Cytotoxicity,[1]; preincubation 100 micromolar,54.2%
same,NK Function % Specific Cytotoxicity,[1]; preincubation 250 micromolar,45.7%
same,NK Function % Specific Cytotoxicity,[1]; preincubation 500 micromolar,45.7%
same,NK Function % Specific Cytotoxicity,[1]; preincubation 1000 micromolar,46.9%
"CC(C)C[C@H](NC(=O)[C@@H](N)Cc1ccccc1)C(=O)O [Phe-Leu, L-phenylalanyl L-leucine, reference compound] (H-Phe-Leu-OH)",effect of unesterified dipeptides on NK cell survival or lytic activity,[1],had no effect on NK cell survival or lytic activity
COC(=O)[C@H](CC(C)C)NC(=O)[C@H](CC(C)C)NC(=O)[C@H](CC(C)C)NC(=O)[C@H](CC(C)C)NC(=O)[C@H](CC(C)C)NC(=O)[C@@H](N)CC(C)C [LLLLLLOMe] (H-LLLLLL-OMe),^51 Cr Release from RBC,human erythrocytes (RBC); 20 micro-M,698 + 137
same,^51 Cr Release from RBC,human erythrocytes (RBC); 100 micro-M,"6,129 + 400"
same,^51 Cr Release from RBC,human erythrocytes (RBC); 500 micro-M,"3,531 + 101"
same,"damage to RBC by compound alone, in words",human erythrocytes (RBC); no DPPI,Disruption of erythrocyte membranes was observed
COC(=O)[C@H](Cc1ccc(O)cc1)NC(=O)[C@@H](N)CC(C)C [Leu-Tyr-OMe] (H-Leu-Tyr-OMe),"competitive inhibition of [3H]Leu-Leu-OMe uptake, in words",[2],excellent competitive inhibitors of [^3 H]Leu-Leu-OMe uptake
same,inhibition at 250 µM,[2]; [4],86%
same,NK Toxicity (LD50),[1],> 250 micro-M
same,"NK toxicity / effect on NK function, in words",[1],no observed NK inhibitory effects; also recorded: little or no toxicity for NK cells
"CC[C@H](C)[C@H](N)C(=O)OC [Ile-OMe, reference compound]",prevention of Leu-OMe ablation of NK activity,[1],largely prevented
same,permanent effect on NK function,[1],"neither chloroquine, NH4 Cl, nor Ile-OMe had any substantial permanent effect on NK function"
COC(=O)CNC(=O)[C@@H](N)CC(C)C [Leu-Gly-OMe] (H-Leu-Gly-OMe),"NK toxicity / effect on NK function, in words",[1],greatly reduced NK toxicity
"CC(C)C[C@H](N)C(=O)N[C@@H](Cc1ccccc1)C(=O)O [Leu-Phe, L-leucyl L-phenylalanine, reference compound] (H-Leu-Phe-OH)",effect of unesterified dipeptides on NK cell survival or lytic activity,[1],had no effect on NK cell survival or lytic activity
COC(=O)[C@H](CC(C)C)NC(=O)[C@@H](N)Cc1ccccc1 [Phe-Leu-OMe] (H-Phe-Leu-OMe),"NK toxicity / effect on NK function, in words",[1],produced concentration-dependent ablation of NK function at concentrations comparable to those at which Leu-Leu-OMe was active
"Cl.N [NH4 Cl, reference compound]",prevention of Leu-OMe ablation of NK activity,[1],largely prevented
same,permanent effect on NK function,[1],"neither chloroquine, NH4 Cl, nor Ile-OMe had any substantial permanent effect on NK function"
"CC(C)C[C@H](N)C(=O)O [Leucine, L-leucine, reference compound]","NK toxicity / effect on NK function, in words",[1],had no irreversible effect on NK function
NCC(=O)N[C@@H](Cc1ccccc1)C(N)=O [Gly-Phe-NH2] (H-Gly-Phe-NH2),NK Function % Specific Lysis K562,[1]; [5],43.9%
same,"NK toxicity / effect on NK function, in words",[1],has no apparent NK toxic effects
CC(C)C[C@H](NC(=O)[C@@H](N)CC(C)C)C(N)=O [Leu-Leu-NH2],"competitive inhibition of [3H]Leu-Leu-OMe uptake, in words",[2],do not competitively inhibit PBL uptake of L-Leu-L-Leu-OMe
same,inhibition at 250 µM,[2]; [3],8%
same,NK Function % Specific Lysis K562,"[1]; 1.00 micro-M, Nil 66 (Table 14)",66%
same,NK Function % Specific Lysis K562,"[1]; 250.00 micro-M, Nil 66 (Table 14)",71%
same,"NK toxicity / effect on NK function, in words",[1],no discernible toxicity for NK Cells
